Target: His-tagged N-terminal ATP binding domain (amino acid residues 9-236) of HSP90α (Homo sapiens, UniProt P07900)
Assay: HSP90 inhibitor binding potency: TRF competition binding assay
Conditions: Table 4; competition with biotinylated radicicol
In short: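 His-tagged HSP90α N-domain (residues 9-236) incubated 2 h at room temperature with biotinylated radicicol and increasing compound in 50 mM HEPES, 6 mM MgCl2, 20 mM KCl, 0.1% BSA. Bound tracer captured on streptavidin plates, detected with europium anti-His antibody by time-resolved fluorescence; IC50 derived.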

| Structure (SMILES) | IC50 [µM] |
| --- | --- |
| COc1nc(-c2ccccc2[C@H]2Cc3nc(N)nc(C)c3C(=O)N2)cs1 [Compound 188, (R)-2-Amino-7-[2-(2-methoxy-thiazol-4-yl)-phenyl]-4-methyl-7,8-dihydro-6H-pyrido[4,3-d]pyrimidin-5-one] | < 10 |
| COc1ncc(-c2ccccc2[C@H]2Cc3nc(N)nc(C)c3C(=O)N2)nc1OC [Compound 189, (R)-2-Amino-7-[2-(5,6-dimethoxy-pyrazin-2-yl)-phenyl]-4-methyl-7,8-dihydro-6H-pyrido[4,3-d]pyrimidin-5-one] | < 10 |
| COc1nc(-c2cc(F)ccc2[C@H]2Cc3nc(N)nc(C)c3C(=O)N2)ccc1N [Compound 190, (R)-2-Amino-7-[2-(5-amino-6-methoxy-pyridin-2-yl)-4-fluoro-phenyl]-4-methyl-7,8-dihydro-6H-pyrido[4,3-d]pyrimidin-5-o[…]ne] | < 10 |
| Nc1ncc2c(n1)C[C@H](c1ccc(F)cc1-c1cccnc1)NC2=O [Compound 191, (R)-2-Amino-7-(4-fluoro-2-pyridin-3-yl-phenyl)-7,8-dihydro-6H-pyrido[4,3-d]pyrimidin-5-one] | < 10 |
| COc1ncc(-c2cc(F)ccc2[C@H]2Cc3nc(N)ncc3C(=O)N2)c(OC)n1 [Compound 192, (R)-2-Amino-7-[2-(2,4-dimethoxy-pyrimidin-5-yl)-4-fluoro-phenyl]-7,8-dihydro-6H-pyrido[4,3-d]pyrimidin-5-one] | ≥ 10 |
| CCOc1ccnc(-c2cc(F)ccc2[C@H]2Cc3nc(N)nc(C)c3C(=O)N2)n1 [Compound 193, (R)-2-Amino-7-[2-(4-ethoxy-pyrimidin-2-yl)-4-fluoro-phenyl]-4-methyl-7,8-dihydro-6H-pyrido[4,3-d]pyrimidin-5-one] | < 10 |
| COc1cncc(-c2ccccc2[C@H]2Cc3nc(N)nc(C)c3C(=O)N2)n1 [Compound 194, (R)-2-Amino-7-[2-(6-methoxy-pyrazin-2-yl)-phenyl]-4-methyl-7,8-dihydro-6H-pyrido[4,3-d]pyrimidin-5-one] | < 10 |
| COc1ccnc(-c2cc(F)ccc2[C@H]2Cc3nc(N)nc(C)c3C(=O)N2)n1 [Compound 195, (R)-2-Amino-7-[4-fluoro-2-(4-methoxy-pyrimidin-2-yl)-phenyl]-4-methyl-7,8-dihydro-6H-pyrido[4,3-d]pyrimidin-5-one] | < 10 |
| CCOc1nc(-c2cc(F)ccc2[C@H]2Cc3nc(N)nc(C)c3C(=O)N2)cnc1N [Compound 196, (R)-2-Amino-7-[2-(5-amino-6-ethoxy-pyrazin-2-yl)-4-fluoro-phenyl]-4-methyl-7,8-dihydro-6H-pyrido[4,3-d]pyrimidin-5-one] | < 10 |
| CCOc1nc(-c2ccccc2[C@H]2Cc3nc(N)nc(C)c3C(=O)N2)cnc1N [Compound 197, (R)-2-Amino-7-[2-(5-amino-6-ethoxy-pyrazin-2-yl)-phenyl]-4-methyl-7,8-dihydro-6H-pyrido[4,3-d]pyrimidin-5-one] | < 10 |
| CCc1nc(N)nc2c1C(=O)N[C@@H](c1ccccc1-c1cccc(OC)n1)C2 [Compound 198, (R)-2-Amino-4-ethyl-7-[2-(6-methoxy-pyridin-2-yl)-phenyl]-7,8-dihydro-6H-pyrido[4,3-d]pyrimidin-5-one] | < 10 |
| CCc1nc(N)nc2c1C(=O)N[C@@H](c1ccccc1-c1cncc(OC)n1)C2 [Compound 199, (R)-2-Amino-4-ethyl-7-[2-(6-methoxy-pyrazin-2-yl)-phenyl]-7,8-dihydro-6H-pyrido[4,3-d]pyrimidin-5-one] | < 10 |
| CCc1nc(N)nc2c1C(=O)N[C@@H](c1ccccc1-c1cnc(N)c(OC)n1)C2 [Compound 200, (R)-2-Amino-7-[2-(5-amino-6-methoxy-pyrazin-2-yl)-phenyl]-4-ethyl-7,8-dihydro-6H-pyrido[4,3-d]pyrimidin-5-one] | < 10 |
| CCc1nc(N)nc2c1C(=O)N[C@@H](c1ccccc1-c1csc(OC)n1)C2 [Compound 201, (R)-2-Amino-4-ethyl-7-[2-(2-methoxy-thiazol-4-yl)-phenyl]-7,8-dihydro-6H-pyrido[4,3-d]pyrimidin-5-one] | ≥ 10 |
| COc1nc(-c2cc(F)ccc2[C@H]2Cc3nc(N)nc(C)c3C(=O)N2)ncc1Cl [Compound 202, (R)-2-Amino-7-[2-(5-chloro-4-methoxy-pyrimidin-2-yl)-4-fluoro-phenyl]-4-methyl-7,8-dihydro-6H-pyrido[4,3-d]pyrimidin-5-one] | < 10 |
| COc1cncc(-c2ccccc2[C@H]2Cc3nc(N)ncc3C(=O)N2)n1 [Compound 203, (R)-2-Amino-7-[2-(6-methoxy-pyrazin-2-yl)-phenyl]-7,8-dihydro-6H-pyrido[4,3-d]pyrimidin-5-one] | < 10 |
| COc1nc(-c2ccccc2[C@H]2Cc3nc(N)nc(C)c3C(=O)N2)ncc1F [Compound 204, (R)-2-Amino-7-[2-(5-fluoro-4-methoxy-pyrimidin-2-yl)-phenyl]-4-methyl-7,8-dihydro-6H-pyrido[4,3-d]pyrimidin-5-one] | < 10 |
| COc1nc(-c2ccccc2[C@H]2Cc3nc(N)nc(C)c3C(=O)N2)ccc1N [Compound 205, (R)-2-Amino-7-[2-(5-amino-6-methoxy-pyridin-2-yl)-phenyl]-4-methyl-7,8-dihydro-6H-pyrido[4,3-d]pyrimidin-5-one] | < 10 |
| COc1cccc(-c2ccccc2[C@H]2Cc3nc(N)ncc3C(=O)N2)n1 [Compound 206, (R)-2-Amino-7-[2-(6-methoxy-pyridin-2-yl)-phenyl]-7,8-dihydro-6H-pyrido[4,3-d]pyrimidin-5-one] | < 10 |
| Cc1nc(N)nc2c1C(=O)N[C@@H](c1ccc(F)cc1-c1nccc(N3CCCC3)n1)C2 [Compound 207, (R)-2-Amino-7-[4-fluoro-2-(4-pyrrolidin-1-yl-pyrimidin-2-yl)-phenyl]-4-methyl-7,8-dihydro-6H-pyrido[4,3-d]pyrimidin-5-one] | ≥ 10 |
| COc1nc(-c2cc(F)ccc2[C@H]2Cc3nc(N)ncc3C(=O)N2)ccc1N [Compound 208, (R)-2-Amino-7-[2-(5-amino-6-methoxy-pyridin-2-yl)-4-fluoro-phenyl]-7,8-dihydro-6H-pyrido[4,3-d]pyrimidin-5-one] | < 10 |
| COc1ccc(-c2cc(F)ccc2[C@H]2Cc3nc(N)nc(C)c3C(=O)N2)s1 [Compound 209, (R)-2-Amino-7-[4-fluoro-2-(5-methoxy-thiophen-2-yl)-phenyl]-4-methyl-7,8-dihydro-6H-pyrido[4,3-d]pyrimidin-5-one] | < 10 |
| CCc1nc(N)nc2c1C(=O)N[C@@H](c1ccc(F)cc1Br)C2 [Compound 210, (R)-2-Amino-7-(2-bromo-4-fluoro-phenyl)-4-ethyl-7,8-dihydro-6H-pyrido[4,3-d]pyrimidin-5-one] | ≥ 10 |
| CCc1nc(N)nc2c1C(=O)N[C@@H](c1ccc(F)cc1-c1cccc(OC)n1)C2 [Compound 211, (R)-2-Amino-4-ethyl-7-[4-fluoro-2-(6-methoxy-pyridin-2-yl)-phenyl]-7,8-dihydro-6H-pyrido[4,3-d]pyrimidin-5-one] | < 10 |
| CCc1nc(N)nc2c1C(=O)N[C@@H](c1ccc(F)cc1-c1cncc(OC)n1)C2 [Compound 212, (R)-2-Amino-4-ethyl-7-[4-fluoro-2-(6-methoxy-pyrazin-2-yl)-phenyl]-7,8-dihydro-6H-pyrido[4,3-d]pyrimidin-5-one] | < 10 |
